Measured values from patent US12398107B2, “Fungicidal nitroanilino substituted pyrazoles” (FMC Corporation, priority 2018, dated 2025).

Legend:
Type in all cases: in vivo
Alternaria solani = assay: Test F: tomato early blight, preventive spray on tomato seedlings; conditions: 100 = 100% disease control, 0 = no control; for Test F disease control rating (tomato early blight) / pest or weed control at 50 ppm: 50 ppm; for pest or weed control at 10 ppm / pest or weed control at 50 ppm: Alternaria solani, read-out: Test F disease control rating (tomato early blight)
How it was run: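 Compounds in acetone/water (50/50) with 250 ppm PEG400, dosed in ppm, sprayed to run-off on tomato seedlings; next day inoculated with A. solani spores. Held 48 h saturated at 27° C, then 3 days at 20° C; visual rating 0–100% disease control relative to controls.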

Septoria tritici = assay: Test A: wheat leaf blotch, preventive spray on wheat seedlings; conditions: 100 = 100% disease control, 0 = no control relative to controls; for Test A disease control rating (wheat leaf blotch) / pest or weed control at 50 ppm: 50 ppm; for pest or weed control at 10 ppm / pest or weed control at 50 ppm: Zymoseptoria tritici, read-out: Test A disease control rating (wheat leaf blotch)
How it was run: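 Compounds were suspended in acetone/water (50/50) with 250 ppm PEG400 and sprayed to run-off on wheat seedlings. The next day the seedlings were inoculated with Septoria tritici spores, held 48 h at 24 °C in saturated humidity, then 17 days at 20 °C. Disease control was rated 0–100 relative to controls.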

Phakopsora pachyrhizi = assay: Test D: Asian soybean rust, preventive spray on soybean seedlings; conditions: 100 = 100% disease control, 0 = no control; for Test D disease control rating (Asian soybean rust) / pest or weed control at 50 ppm: 50 ppm; for pest or weed control at 10 ppm / pest or weed control at 50 ppm: Phakopsora pachyrhizi, read-out: Test D disease control rating (Asian soybean rust)
How it was run: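 Soybean seedlings sprayed to run-off with compound suspension (ppm, in 50/50 acetone/water with 250 ppm PEG400), inoculated next day with P. pachyrhizi spores, held 24 h saturated at 22°C then 8 days at 22°C. Visual rating 0-100% disease control relative to controls.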

[1] = test system: Puccinia recondita f. sp. tritici; assay: Test B: wheat leaf rust, preventive spray on wheat seedlings; conditions: 100 = 100% disease control, 0 = no control relative to controls; for Test B disease control rating (wheat leaf rust) / pest or weed control at 50 ppm: 50 ppm; for pest or weed control at 10 ppm / pest or weed control at 50 ppm: read-out: Test B disease control rating (wheat leaf rust)
How it was run: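 Compounds in acetone/water (50/50) with 250 ppm PEG400, sprayed to run-off on wheat seedlings at stated ppm; inoculated next day with P. recondita spores. Held 24 h saturated at 20° C., then 7 days in growth chamber at 20° C.; rating 0–100 = % disease control vs controls.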

Botrytis cinerea = assay: Test E: tomato Botrytis, preventive spray on tomato seedlings; conditions: 100 = 100% disease control, 0 = no control; for Test E disease control rating (tomato Botrytis) / pest or weed control at 50 ppm: 50 ppm; for pest or weed control at 10 ppm / pest or weed control at 50 ppm: Botrytis cinerea, read-out: Test E disease control rating (tomato Botrytis)
How it was run: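 Tomato seedlings sprayed to run-off with compound (ppm) in acetone/water with 250 ppm PEG400, then inoculated next day with B. cinerea spores. Held 48 h at 20 °C in saturated atmosphere, then 3 days at 24 °C. Visual rating 0–100% disease control relative to untreated controls.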

[2] = test system: Blumeria graminis f. sp. tritici; assay: Test C: wheat powdery mildew, preventive spray on wheat seedlings; conditions: rated after 8 days, 100 = 100% disease control, 0 = no control; for Test C disease control rating (wheat powdery mildew) / pest or weed control at 50 ppm: 50 ppm; for pest or weed control at 10 ppm / pest or weed control at 50 ppm: Blumeria graminis, 192 h, read-out: Test C disease control rating (wheat powdery mildew)
How it was run: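 Compound dissolved in acetone (3% of final volume), then suspended in 50/50 acetone/water with 250 ppm PEG400 and sprayed to run-off on wheat seedlings. Inoculated next day with B. graminis f. sp. tritici spore dust, kept 8 days at 20° C; visual rating, 100 = full control, 0 = none, relative to controls.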

Structure (SMILES)	Test F disease control rating (tomato early blight) (Alternaria solani) [%]	Test A disease control rating (wheat leaf blotch) (Septoria tritici) [%]	Test D disease control rating (Asian soybean rust) (Phakopsora pachyrhizi) [%]	Test B disease control rating (wheat leaf rust) [1] [%]	Test E disease control rating (tomato Botrytis) (Botrytis cinerea) [%]	Test C disease control rating (wheat powdery mildew) [2] [%]	pest or weed control at 10 ppm (Alternaria solani) [%]	pest or weed control at 50 ppm (Alternaria solani) [%]	pest or weed control at 10 ppm (Septoria tritici) [%]	pest or weed control at 50 ppm (Septoria tritici) [%]	pest or weed control at 10 ppm (Phakopsora pachyrhizi) [%]	pest or weed control at 50 ppm (Phakopsora pachyrhizi) [%]	pest or weed control at 10 ppm [1] [%]	pest or weed control at 50 ppm [1] [%]	pest or weed control at 10 ppm (Botrytis cinerea) [%]	pest or weed control at 50 ppm (Botrytis cinerea) [%]	pest or weed control at 10 ppm [2] [%]	pest or weed control at 50 ppm [2] [%]
Cc1nn(C)c(Nc2c(F)cc(F)cc2[N+](=O)[O-])c1-c1ccc(F)cc1Br [Compound 51]	99	100	79	100	98	100												
COc1cc(F)c(-c2c(C)nn(C)c2Nc2ccccc2[N+](=O)[O-])c(F)c1 [Compound 147]	99	96	0	86	100	97												
CCOc1ccc(Nc2c(-c3ccc(F)cc3Cl)c(C)nn2C)c([N+](=O)[O-])c1 [Compound 103]	0	97	0	80	83	50												
Cc1cc(F)c(Nc2c(-c3ccc(F)cc3F)c(C)nn2C)c([N+](=O)[O-])c1 [Compound 178]	100	100	97	100	100	99												
Cc1nn(C)c(Nc2c(Cl)cccc2[N+](=O)[O-])c1-c1c(F)cc(F)cc1Cl [Compound 152]	92	99	91	100	99	98												
COc1cc(F)c(Nc2c(-c3ccc(C#N)cc3Cl)c(C)nn2C)c([N+](=O)[O-])c1 [Compound 166]	100	99	98	100	99	98												
Cc1nn(C)c(Nc2c(F)cccc2[N+](=O)[O-])c1-c1ccc(F)cc1Cl [Compound 112, 4-(2-chloro-4-fluorophenyl)-N-(2-fluoro-6-nitrophenyl)-1,3-dimethyl-1H-pyrazol-5-amine]							98	100	72	88	52	99	100	100	100	100	98	100
Cc1nn(C)c(Nc2c(F)cccc2[N+](=O)[O-])c1-c1ccc(F)cc1Br [Compound 60, 4-(2-bromo-4-fluorophenyl)-N-(2-fluoro-6-nitrophenyl)-1,3-dimethyl-1H-pyrazol-5-amine]							75	99	99	100	0	97	100	100	99	99	85	100
Cc1nn(C)c(Nc2ccc(OC(C)C)cc2[N+](=O)[O-])c1-c1ccc(F)cc1Cl [Compound 104]	0	60	0	0	0	72												
